One series has as its target RRE hairpin RNA. Nature of the series: Fluorescence anisotropy competition with Rev-N-rhodamine probe, binding to RRE hairpin RNA. Further details: species or system HIV. The note with it: 20° C., pH 7.4, read-out: Dissociation constant, RRE. The method, boiled down: (§1)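 Competitive fluorescence anisotropy at 20° C in 20 mM HEPES pH 7.4, 140 mM NaCl, 5 mM KCl, 1 mM MgCl2. Heat-refolded target RNA bound to 10 nM Rev-N-rhodamine probe; peptide titrated until anisotropy returned to baseline, and Kd fitted from a competition binding equation.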
(In fluorescence polarisation assays a small probe gives low polarisation when free and higher when bound to something large.)

The target of another series is TAR hairpin RNA. Nature of the series: Fluorescence anisotropy competition with Rev-N-rhodamine probe, binding to TAR hairpin RNA. Also noted: species or system HIV. The conditions noted are these: fluorescence anisotropy, 20° C., pH 7.4; read-out: Dissociation constant, TAR. In a few lines:
as §1

Another series addresses 16S ribosomal RNA A-site. Nature of the series: Fluorescence anisotropy competition with Rev-N-rhodamine probe, binding to 16S A-site. The note with it: 20° C., pH 7.4, read-out: Dissociation constant, 16S A-site. The method, boiled down: as §1
For the next series, the system named is IRES domain IV hairpin. Nature of the series: Fluorescence anisotropy competition with Rev-N-rhodamine probe, binding to IRES hairpin. The note with it: for differentiation coefficient (IRES): (mean Kd to other hairpin RNA)/(Kd to one hairpin RNA); for binding strength to IRES, in words: compared with the original peptide; for Kd: fluorescence anisotropy, 20° C., pH 7.4, read-out: Dissociation constant, IRES. Also noted: species or system HCV. The method, boiled down: as §1

Series [1] can be described thus: Circular dichroism (CD), percentage of alpha-helix. The class given is physicochemical. The conditions noted are these: CD at 20° C., condition not given; for Alpha-helical rate (%), second value of pair: value after the slash; for Alpha-helical rate (%), first value of pair: value before the slash. In a few lines: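 Spectra recorded at 20 °C, 190–250 nm, three averaged scans, background-corrected and converted to mean residue ellipticity. Helix fraction derived from [θ] at 222 nm relative to full-helix and random-coil reference values, which depend on residue number and temperature.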
A general note: CD spectra are sensitive to the conformation of chiral molecules.

Series [2] deals with IRES RNA. Nature of the series: Tryptophan fluorescence strength on addition of target RNA. The class given is binding, HCV. As to the method: Fluorescence strength was measured to investigate target RNA binding of the third generation peptides. When tryptophan is activated by 285 nm light, it becomes fluorescent at the wavelength. Changes of fluorescence resulted from the binding respectively to different targets such as IRES, RRE, TAR and 16S A-site RNA, were measured. 0.02 equivalent of target RNA was added slowly to 1 uM peptide solution containing tryptophan.

Series [3] concerns IRES RNA. Nature of the series: Solid surface method (biotin peptide on streptavidin plate, isotope-labeled RNA) with or without tRNAmix. Type of series: binding, HCV. The note with it: comparison with/without tRNAmix, in words. How it is done: Solid surface method was performed to investigate specificity to target RNA of the third generation peptides. Particularly, biotin was conjugated to N-terminal of the peptide, resulting in the preparation for streptavidin binding. 5′-end of target RNA was labeled with an isotope. Streptavidin coated plate was prepared, to which the amphiphilic peptide was adhered at different concentrations. The plate was reacted with a certain amount of the isotope-labeled RNA, followed by washing. Only the RNA conjugated with the amphiphilic peptide was obtained. IC50 was calculated based on the concentration of the target RNA. Experiments were performed in the presence and in the absence of tRNA^mix (Sigma-Aldrich, Germany), and the results were compared.

Where no end group is shown, it is not given here. [ ]: non-standard residue; d: D form. Orn = NCCC[C@H](N)C(=O)O; Dap = NC[C@H](N)C(=O)O

As to “LKKLLKLLKKLLKWAG [2u, tryptophan scanned second generation peptide]”, the Kd on RRE hairpin RNA was 18 nM. Besides, the Kd on TAR hairpin RNA came out at 7.8 nM. The Kd on 16S ribosomal RNA A-site amounted to 3.3 nM. In the series on IRES domain IV hairpin, the “differentiation coefficient (IRES)” value stood at 14; the “binding strength to IRES, in words” value is given as “significantly increased”; the Kd was determined as 0.69 nM. Also, in series [1], the “Alpha-helical rate (%), second value of pair” value worked out at 52% and the “Alpha-helical rate (%), first value of pair” value stood at 20%. Also, in the series with IRES RNA [2] (wavelength moved to shorter site, IRES), the “Fluorescence strength of tryptophan reduced by” value is 1.6 fold.
In the case of “LKKLLKWLKKLLKLAG [2q, tryptophan scanned second generation peptide]”, at RRE hairpin RNA, the Kd is 1.2 nM. In addition, the Kd at TAR hairpin RNA was found to be 21 nM. Also, the Kd on 16S ribosomal RNA A-site was 17 nM. Moreover, in the series with IRES domain IV hairpin, the “differentiation coefficient (IRES)” value was determined as 15; the “binding strength to IRES, in words” value is reported as “significantly increased”; the Kd is 0.87 nM. In addition, in series [1], the “Alpha-helical rate (%), second value of pair” value stood at 71% and the “Alpha-helical rate (%), first value of pair” value is 19%.
Consider “LKKLLKWLOrnKLLDapLAG (LKKLLKWL[Orn]KLL[Dap]LAG-NH2; N-terminus assumed; SMILES CC(C)C[C@H](NC(=O)[C@H](CN)NC(=O)[C@H](CC(C)C)NC(=O)[C@H](CC(C)C)NC(=O)[C@H](CCCCN)NC(=O)[C@H](CCCN)NC(=O)[C@H](CC(C)C)NC(=O)[C@H](Cc1c[nH]c2ccccc12)NC(=O)[C@H](CCCCN)NC(=O)[C@H](CC(C)C)NC(=O)[C@H](CC(C)C)NC(=O)[C@H](CCCCN)NC(=O)[C@H](CCCCN)NC(=O)[C@@H](N)CC(C)C)C(=O)N[C@@H](C)C(=O)NCC(N)=O) [peptide 3d, third generation peptide, both faces modified]”, for which the Kd at RRE hairpin RNA amounted to 26 nM; at TAR hairpin RNA, 24 nM; on 16S ribosomal RNA A-site, 25 nM; on IRES domain IV hairpin it was 0.55 nM. Besides, the “differentiation coefficient (IRES)” value with IRES domain IV hairpin was 45. For the same substance, the “Alpha-helical rate (%), second value of pair” value in series [1] is given as 38%. In addition, in series [1], the “Alpha-helical rate (%), first value of pair” value worked out at 32%. The “Fluorescence strength of tryptophan at #7 reduced from that of tryptophan at #14 of peptide 3h” value with IRES RNA [2] (in the presence of IRES) worked out at 2.3 fold. For the same substance, the “IC50 to IRES RNA in the presence or in the absence of tRNAmix” value in the series on IRES RNA [3] is reported as “not much different”.
As for “LKKLLKWLOrnKLLKLAG (LKKLLKWL[Orn]KLLKLAG-NH2; N-terminus assumed; SMILES CC(C)C[C@H](NC(=O)[C@H](CCCCN)NC(=O)[C@H](CC(C)C)NC(=O)[C@H](CC(C)C)NC(=O)[C@H](CCCCN)NC(=O)[C@H](CCCN)NC(=O)[C@H](CC(C)C)NC(=O)[C@H](Cc1c[nH]c2ccccc12)NC(=O)[C@H](CCCCN)NC(=O)[C@H](CC(C)C)NC(=O)[C@H](CC(C)C)NC(=O)[C@H](CCCCN)NC(=O)[C@H](CCCCN)NC(=O)[C@@H](N)CC(C)C)C(=O)N[C@@H](C)C(=O)NCC(N)=O) [3b, third generation peptide, both faces modified]”, the Kd stood at 18 nM at RRE hairpin RNA, 22 nM on TAR hairpin RNA, 24 nM at 16S ribosomal RNA A-site and 5.1 nM at IRES domain IV hairpin. Besides, the “differentiation coefficient (IRES)” value with IRES domain IV hairpin stood at 4.2. Also, in series [1], the “Alpha-helical rate (%), second value of pair” value was 52%. In addition, the “Alpha-helical rate (%), first value of pair” value in series [1] came out at 34%.
Consider “LKKLLOrnLLKKLLKLAG (LKKLL[Orn]LLKKLLKLAG-NH2; N-terminus assumed; SMILES CC(C)C[C@H](NC(=O)[C@H](CCCCN)NC(=O)[C@H](CC(C)C)NC(=O)[C@H](CC(C)C)NC(=O)[C@H](CCCCN)NC(=O)[C@H](CCCCN)NC(=O)[C@H](CC(C)C)NC(=O)[C@H](CC(C)C)NC(=O)[C@H](CCCN)NC(=O)[C@H](CC(C)C)NC(=O)[C@H](CC(C)C)NC(=O)[C@H](CCCCN)NC(=O)[C@H](CCCCN)NC(=O)[C@@H](N)CC(C)C)C(=O)N[C@@H](C)C(=O)NCC(N)=O) [2a, second generation peptide, hydrophilic face modified]”, for which the Kd was found to be 17 nM on RRE hairpin RNA, 14 nM on TAR hairpin RNA, 15 nM at 16S ribosomal RNA A-site and 6.1 nM on IRES domain IV hairpin. Moreover, in the series on IRES domain IV hairpin, the “differentiation coefficient (IRES)” value was determined as 2.5. Further, the “Alpha-helical rate (%), second value of pair” value in series [1] was found to be 82%. In addition, the “Alpha-helical rate (%), first value of pair” value in series [1] came out at 13%.
As for “LKKLWKLLKKLLKLAG [2p, tryptophan scanned second generation peptide]”, the Kd at RRE hairpin RNA came to 6.2 nM; at TAR hairpin RNA, 9.8 nM; on 16S ribosomal RNA A-site it was 12 nM; at IRES domain IV hairpin, 2.8 nM. In addition, the “differentiation coefficient (IRES)” value in the series on IRES domain IV hairpin is 3.3. Besides, the “Alpha-helical rate (%), second value of pair” value in series [1] is recorded as 56%. The “Alpha-helical rate (%), first value of pair” value in series [1] is on record as 20%.
On to “LKKWLKLLKKLLKLAG [2o, tryptophan scanned second generation peptide]”, for which the Kd on RRE hairpin RNA worked out at 5.9 nM; at TAR hairpin RNA, 34 nM; on 16S ribosomal RNA A-site, 15 nM; on IRES domain IV hairpin it was 3.3 nM. Besides, in the series with IRES domain IV hairpin, the “differentiation coefficient (IRES)” value is 5.6. Moreover, the “Alpha-helical rate (%), second value of pair” value in series [1] is given as 52%. Further, in series [1], the “Alpha-helical rate (%), first value of pair” value was 4.6%.
As for “WKKLLKLLKKLLKLAG [2n, tryptophan scanned second generation peptide]”, the Kd at RRE hairpin RNA came to 2.5 nM. Moreover, the Kd at TAR hairpin RNA turned out to be 2 nM. Moreover, at 16S ribosomal RNA A-site, the Kd was found to be 0.76 nM. Besides, in the series on IRES domain IV hairpin, the “differentiation coefficient (IRES)” value amounted to 2.4; the “binding strength to IRES, in words” value was “significantly increased”; the Kd was 0.74 nM. Further, in series [1], the “Alpha-helical rate (%), second value of pair” value stood at 65% and the “Alpha-helical rate (%), first value of pair” value worked out at 48%.

Values taken from US8084399B2, “Process for screening of a binding amphiphilic peptides specific for hairpin RNA” (priority 2009, dated 2011).
